Measured values from patent US20230002359A1, “PESTICIDALLY ACTIVE FUSED BICYCLIC HETEROAROMATIC COMPOUNDS” (priority 2019, published 2023).

Tests used:
Format in all cases: in vivo
[1] = tested on: Chilo suppressalis (Striped Rice Stemborer); experiment: Example B3: Chilo suppressalis (striped rice stemborer), artificial diet, L2 larvae; conditions: 144 h, application rate of 200 ppm, 6 days after infestation, L2 larvae, read-out: control in at least one of the three categories (mortality, anti-feedant effect, or growth inhibition)
Outline: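 Artificial diet in wells was treated with aqueous test solutions diluted from 10'000 ppm DMSO stocks, dried, then infested with 6-8 L2 larvae per well. Mortality, anti-feeding effect and growth inhibition were scored against untreated samples 6 days after infestation; control means any category exceeds the untreated sample.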

[2] = tested on: Diabrotica Balteata (Corn Root Worm); experiment: Example B1: Diabrotica balteata (corn root worm), maize sprouts sprayed, L2 larvae; conditions: 96 h, application rate of 200 ppm, 4 days after infestation, L2 larvae, read-out: control in at least one of the two categories (mortality or growth inhibition)
Outline: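 Spray test: maize sprouts on agar, aqueous dilutions of 10′000 ppm DMSO stock; after drying, 6–10 L2 larvae/well. Read-out at 4 d post-infestation: mortality and growth inhibition vs untreated.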

[3] = tested on: Plutella xylostella (Diamond Back Moth); experiment: Example B4: Plutella xylostella (diamond back moth), artificial diet, eggs, 24-well; conditions: 192 h, application rate of 200 ppm, 8 days after infestation, eggs, read-out: control in at least one of the two categories (mortality or growth inhibition)
Experimental: 24-well microtiter plates with artificial diet were treated with aqueous test solutions prepared from 10′000 ppm DMSO stock solutions by pipetting. After drying, Plutella eggs were pipetted through a plastic stencil onto a gel blotting paper and the plate was closed with it. The samples were assessed for mortality and growth inhibition in comparison to untreated samples 8 days after infestation.

[4] = tested on: Spodoptera littoralis (Egyptian Cotton Leaf Worm); experiment: Example B7: Spodoptera littoralis (Egyptian cotton leaf worm), cotton leaf discs sprayed, L1 larvae; conditions: foliar, 72 h, application rate of 200 ppm, 3 days after infestation, L1 larvae, read-out: control in at least one of the three categories (mortality, anti-feedant effect, or growth inhibition)
Outline: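 Spray application onto agar-supported cotton leaf discs used aqueous solutions derived from 10′000 ppm DMSO stocks. Once dry, discs were infested with five L1 larvae and evaluated after 3 days for mortality, anti-feeding and growth inhibition relative to untreated controls.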

CC(c1ncnn1-c1ncccn1)N(C)c1nccc2c(C(F)(F)F)cc(C(F)(F)F)cc12 (centres unmarked) [P.250, N-methyl-N-[1-(2-pyrimidin-2-yl-1,2,4-triazol-3-yl)ethyl]-5,7-bis(trifluoromethyl)isoquino-lin-1-amine]
≥ 80%: percent control (mortality, anti-feedant effect or growth inhibition) at 200 ppm [1] | percent control (mortality or growth inhibition) at 200 ppm [2] | percent control (mortality or growth inhibition) at 200 ppm [3] | percent control (mortality, anti-feedant effect or growth inhibition) at 200 ppm [4]

CC(c1nccnc1-n1nccn1)N(C)c1ncnc2c(C(F)(F)F)cc(C(F)(F)F)cc12 (centres unmarked) [P.103, N-methyl-N-[1-[3-(triazol-2-yl)pyrazin-2-yl]ethyl]-6,8-bis(trifluoromethyl)quina-zolin-4-amine]
≥ 80%: percent control (mortality, anti-feedant effect or growth inhibition) at 200 ppm [1] | percent control (mortality or growth inhibition) at 200 ppm [2] | percent control (mortality or growth inhibition) at 200 ppm [3] | percent control (mortality, anti-feedant effect or growth inhibition) at 200 ppm [4]

CC(c1ncnn1-c1ccc(C#N)cn1)N(C#N)c1ncnc2c(C(F)(F)F)cc(C(F)(F)F)cc12 (centres unmarked) [P.9, [6,8-bis(trifluoromethyl)quina-zolin-4-yl]-[1-[2-(5-cyano-2-pyridyl)-1,2,4-triazol-3-yl]ethyl]cyanamide]
≥ 80%: percent control (mortality, anti-feedant effect or growth inhibition) at 200 ppm [1] | percent control (mortality or growth inhibition) at 200 ppm [2] | percent control (mortality or growth inhibition) at 200 ppm [3] | percent control (mortality, anti-feedant effect or growth inhibition) at 200 ppm [4]

CC(Nc1ncnc2c(Br)cc(C(F)(F)F)cc12)c1nccnc1-c1ncccn1 (centres unmarked) [P.96, 8-bromo-N-[1-(3-pyrimidin-2-ylpyrazin-2-yl)ethyl]-6-(trifluoromethyl)quinazolin-4-amine]
≥ 80%: percent control (mortality, anti-feedant effect or growth inhibition) at 200 ppm [1] | percent control (mortality or growth inhibition) at 200 ppm [2] | percent control (mortality or growth inhibition) at 200 ppm [3] | percent control (mortality, anti-feedant effect or growth inhibition) at 200 ppm [4]

C[C@H](Nc1ccnc2c(Br)cc(C(F)(F)F)cc12)c1ncnn1-c1ncccn1 [P.209, 8-bromo-N-[(1S)-1-(2-pyrimidin-2-yl-1,2,4-triazol-3-yl)ethyl]-6-(trifluoromethyl)quinolin-4-amine]
≥ 80%: percent control (mortality, anti-feedant effect or growth inhibition) at 200 ppm [1] | percent control (mortality or growth inhibition) at 200 ppm [2] | percent control (mortality or growth inhibition) at 200 ppm [3] | percent control (mortality, anti-feedant effect or growth inhibition) at 200 ppm [4]

CC(Nc1ncnc2c(Br)cc(OC(F)(F)F)cc12)c1nccnc1-n1nccn1 (centres unmarked) [P.13, 8-bromo-N-[1-[3-(triazol-2-yl)pyrazin-2-yl]ethyl]-6-(trifluoromethoxy)quina-zolin-4-amine]
≥ 80%: percent control (mortality, anti-feedant effect or growth inhibition) at 200 ppm [1] | percent control (mortality or growth inhibition) at 200 ppm [2] | percent control (mortality or growth inhibition) at 200 ppm [3] | percent control (mortality, anti-feedant effect or growth inhibition) at 200 ppm [4]

C[C@H](Nc1ncnc2c(C(F)(F)F)cc(I)cc12)c1ncnn1-c1ccc(C#N)cn1 [P.218, 6-[5-[(1S)-1-[[6-iodo-8-(trifluoromethyl)quinazolin-4-yl]amino]ethyl]-1,2,4-triazol-1-yl]pyridine-3-carbonitirle]
≥ 80%: percent control (mortality, anti-feedant effect or growth inhibition) at 200 ppm [1] | percent control (mortality or growth inhibition) at 200 ppm [2] | percent control (mortality or growth inhibition) at 200 ppm [3] | percent control (mortality, anti-feedant effect or growth inhibition) at 200 ppm [4]

CC(c1ncnn1-c1ccc(F)cn1)N(C)c1ncnc2c(C(F)(F)F)cc(C(F)(F)F)cc12 (centres unmarked) [P.189, N-[1-[2-(5-fluoro-2-pyridyl)-1,2,4-triazol-3-yl]ethyl]-N-methyl-6,8-bis(trifluoromethyl)quina-zolin-4-amine]
≥ 80%: percent control (mortality, anti-feedant effect or growth inhibition) at 200 ppm [1] | percent control (mortality or growth inhibition) at 200 ppm [2] | percent control (mortality or growth inhibition) at 200 ppm [3] | percent control (mortality, anti-feedant effect or growth inhibition) at 200 ppm [4]

CC(c1ncnn1-c1ccc(C#N)cn1)N(C)c1nccc2c(C(F)(F)F)cc(C(F)(F)F)cc12 (centres unmarked) [P.211, 6-[5-[1-[[5,7-bis(trifluoromethyl)-1-isoquinolyl]-methyl-amino]ethyl]-1,2,4-triazol-1-yl]pyridine-3 carbonitrile]
≥ 80%: percent control (mortality, anti-feedant effect or growth inhibition) at 200 ppm [1] | percent control (mortality or growth inhibition) at 200 ppm [2] | percent control (mortality or growth inhibition) at 200 ppm [3] | percent control (mortality, anti-feedant effect or growth inhibition) at 200 ppm [4]

C[C@@H](c1ncnn1-c1ncccn1)N(C)c1ccnc2c(Br)cc(C(F)(F)F)cc12 [P.255, 8-bromo-N-methyl-N-[(1S)-1-(2-pyrimidn-2-yl-1,2,4-triazol-3-yl)ethyl]-6-(trifluoromethyl)quinolin-4-amine]
≥ 80%: percent control (mortality, anti-feedant effect or growth inhibition) at 200 ppm [1] | percent control (mortality or growth inhibition) at 200 ppm [2] | percent control (mortality or growth inhibition) at 200 ppm [3] | percent control (mortality, anti-feedant effect or growth inhibition) at 200 ppm [4]

CC(c1nccnc1-c1ncccn1)N(CC1CC1)c1ncnc2c(C(F)(F)F)cc(Cl)cc12 (centres unmarked) [P.131, 6-chloro-N-(cyclopropylmethyl)-N-[1-(3-pyrimidin-2-ylpyrazin-2-yl)ethyl]-8-(trifluoromethyl)quinazolin-4-amine]
≥ 80%: percent control (mortality, anti-feedant effect or growth inhibition) at 200 ppm [1] | percent control (mortality or growth inhibition) at 200 ppm [2] | percent control (mortality or growth inhibition) at 200 ppm [3] | percent control (mortality, anti-feedant effect or growth inhibition) at 200 ppm [4]

CC(Nc1ncnc2c(OC(F)F)cc(Br)cc12)c1nccnc1-n1nccn1 (centres unmarked) [P.31, 6-bromo-8-(difluoromethoxy)-N-[1-[3-(triazol-2-yl)pyrazin-2-yl]ethyl]quinazolin-4-amine]
≥ 80%: percent control (mortality, anti-feedant effect or growth inhibition) at 200 ppm [1] | percent control (mortality or growth inhibition) at 200 ppm [2] | percent control (mortality or growth inhibition) at 200 ppm [3] | percent control (mortality, anti-feedant effect or growth inhibition) at 200 ppm [4]

CC(c1nccnc1-n1nccn1)N(C)c1ncnc2c(Cl)cc(C(F)(F)F)cc12 (centres unmarked) [P.102, 8-chloro-N-methyl-N-[1-[3-(triazol-2-yl)pyrazin-2-yl]ethyl]-6-(trifluoromethyl)quinazolin-4-amine]
≥ 80%: percent control (mortality, anti-feedant effect or growth inhibition) at 200 ppm [1] | percent control (mortality or growth inhibition) at 200 ppm [2] | percent control (mortality or growth inhibition) at 200 ppm [3] | percent control (mortality, anti-feedant effect or growth inhibition) at 200 ppm [4]

CC(c1nccnc1-c1ncccn1)N(C)c1ncnc2c(Cl)cc(C(F)(F)F)cc12 (centres unmarked) [P.100, 8-chloro-N-methyl-N-[1-(3-pyrimidin-2-ylpyrazin-2-yl)ethyl]-6-(trifluoromethyl)quinazolin-4-amine]
≥ 80%: percent control (mortality, anti-feedant effect or growth inhibition) at 200 ppm [1] | percent control (mortality or growth inhibition) at 200 ppm [2] | percent control (mortality or growth inhibition) at 200 ppm [3] | percent control (mortality, anti-feedant effect or growth inhibition) at 200 ppm [4]

CC(Nc1ncnc2c(OC(F)F)cc(Br)cc12)c1ncnn1-c1ccc(C#N)cn1 (centres unmarked) [P.244, 6-[5-[1-[[6-bromo-8-(difluoromethoxy)quinazo-lin-4-yl]amino]ethyl]-1,2,4-triazol-1-yl]pyridine-3-carbonitrile]
≥ 80%: percent control (mortality, anti-feedant effect or growth inhibition) at 200 ppm [1] | percent control (mortality or growth inhibition) at 200 ppm [2] | percent control (mortality or growth inhibition) at 200 ppm [3] | percent control (mortality, anti-feedant effect or growth inhibition) at 200 ppm [4]

C[C@H](Nc1ncnc2c(I)cc(C(F)(F)F)cc12)c1nccnc1-c1ccc(C#N)cn1 [P.161, 6-[3-[(1S)-1-[[8-iodo-6-(trifluoromethyl)quinazolin-4-yl]amino]ethyl]pyrazin-2-yl]pyridine-3-carbonitrile]
≥ 80%: percent control (mortality, anti-feedant effect or growth inhibition) at 200 ppm [1] | percent control (mortality or growth inhibition) at 200 ppm [2] | percent control (mortality or growth inhibition) at 200 ppm [3] | percent control (mortality, anti-feedant effect or growth inhibition) at 200 ppm [4]

CC(c1nccnc1-c1ccc(OC(F)F)cn1)N(C)c1ncnc2c(C(F)(F)F)cc(C(F)(F)F)cc12 (centres unmarked) [P.110, N-[1-[3-[5-(difluoromethoxy)-2-pyridyl]pyrazin-2-yl]ethyl]-N-methyl-6,8-bis(trifluoromethyl)quina-zolin-4-amine]
≥ 80%: percent control (mortality, anti-feedant effect or growth inhibition) at 200 ppm [1] | percent control (mortality or growth inhibition) at 200 ppm [2] | percent control (mortality or growth inhibition) at 200 ppm [3] | percent control (mortality, anti-feedant effect or growth inhibition) at 200 ppm [4]
